Measured values published in ChEMBL document CHEMBL4507325 (2021).

Assays:
[1] = biological target: Histamine H2 receptor (Homo sapiens) (UniProt P25021); conditions: Compound concentration 10.0 uM
[2] = biological target: Aspartate aminotransferase, mitochondrial (Homo sapiens, UniProt P00505); test: Aspartate transaminase assay (GOT2)
[3] = biological target: 5-hydroxytryptamine receptor 5A (Homo sapiens) (UniProt P47898); conditions: Compound concentration 10.0 uM
[4] = biological target: Cannabinoid receptor 1 (Homo sapiens) (UniProt P21554); conditions: Compound concentration 10.0 uM
[5] = biological target: Muscarinic acetylcholine receptor M1 (Homo sapiens) (UniProt P11229); conditions: Compound concentration 10.0 uM
Muscarinic acetylcholine receptor M1 (Homo sapiens), sequence (P11229 whole entry): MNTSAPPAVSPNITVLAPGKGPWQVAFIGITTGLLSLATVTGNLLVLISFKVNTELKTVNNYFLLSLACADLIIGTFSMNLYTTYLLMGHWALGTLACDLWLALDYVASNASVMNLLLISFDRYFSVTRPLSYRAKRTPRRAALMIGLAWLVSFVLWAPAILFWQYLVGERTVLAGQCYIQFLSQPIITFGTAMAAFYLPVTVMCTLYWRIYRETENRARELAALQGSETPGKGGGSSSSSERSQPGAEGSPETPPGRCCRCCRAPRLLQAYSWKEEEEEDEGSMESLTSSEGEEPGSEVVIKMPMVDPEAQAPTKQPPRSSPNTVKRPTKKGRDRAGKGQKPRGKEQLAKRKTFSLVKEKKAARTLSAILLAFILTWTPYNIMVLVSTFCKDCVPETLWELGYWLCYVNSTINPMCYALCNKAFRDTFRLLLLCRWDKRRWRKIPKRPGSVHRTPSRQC

[6] = biological target: Alpha-2C adrenergic receptor (Homo sapiens) (UniProt P18825); conditions: Compound concentration 10.0 uM
Alpha-2C adrenergic receptor (Homo sapiens), sequence (P18825 whole entry): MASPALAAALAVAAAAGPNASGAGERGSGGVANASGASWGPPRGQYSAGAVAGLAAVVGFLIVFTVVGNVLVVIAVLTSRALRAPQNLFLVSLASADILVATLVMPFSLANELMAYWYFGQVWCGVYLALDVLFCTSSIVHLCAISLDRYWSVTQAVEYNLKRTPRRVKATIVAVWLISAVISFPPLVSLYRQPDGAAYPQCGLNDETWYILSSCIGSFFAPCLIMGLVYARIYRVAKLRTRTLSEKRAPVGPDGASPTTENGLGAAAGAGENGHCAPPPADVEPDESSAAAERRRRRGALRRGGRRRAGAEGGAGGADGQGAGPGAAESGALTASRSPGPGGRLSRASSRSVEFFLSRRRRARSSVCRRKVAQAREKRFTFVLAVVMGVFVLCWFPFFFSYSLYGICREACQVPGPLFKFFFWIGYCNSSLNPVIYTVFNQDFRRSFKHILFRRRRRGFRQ

[7] = biological target: 5-hydroxytryptamine receptor 1B (Homo sapiens) (UniProt P28222); conditions: Compound concentration 10.0 uM
[8] = biological target: Alpha-1A adrenergic receptor (Homo sapiens) (UniProt P35348); conditions: Rattus norvegicus; Compound concentration 10.0 uM
[9] = biological target: Histamine H3 receptor (Homo sapiens) (UniProt Q9Y5N1); conditions: Compound concentration 10.0 uM
Oryctolagus cuniculus = species on record: Oryctolagus cuniculus; conditions: Compound concentration 10.0 uM
[10] = biological target: Muscarinic acetylcholine receptor M2 (Homo sapiens) (UniProt P08172); conditions: Compound concentration 10.0 uM
Muscarinic acetylcholine receptor M2 (Homo sapiens), sequence (P08172 whole entry): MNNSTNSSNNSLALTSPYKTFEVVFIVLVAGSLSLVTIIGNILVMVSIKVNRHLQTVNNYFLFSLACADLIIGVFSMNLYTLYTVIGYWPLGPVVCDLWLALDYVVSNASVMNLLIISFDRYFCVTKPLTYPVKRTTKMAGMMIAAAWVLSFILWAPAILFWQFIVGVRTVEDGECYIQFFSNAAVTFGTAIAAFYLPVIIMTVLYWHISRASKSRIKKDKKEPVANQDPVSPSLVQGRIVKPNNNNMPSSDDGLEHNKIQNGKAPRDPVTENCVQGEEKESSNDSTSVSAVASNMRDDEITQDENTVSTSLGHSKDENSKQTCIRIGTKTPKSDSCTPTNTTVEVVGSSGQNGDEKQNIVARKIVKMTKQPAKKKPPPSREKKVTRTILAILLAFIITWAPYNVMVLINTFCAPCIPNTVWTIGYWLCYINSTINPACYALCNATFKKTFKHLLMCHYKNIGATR

[11] = biological target: T1, GABA-A receptor; anion channel (Rattus norvegicus) (UniProt O09028+P15431+P18506+P18508+P19969+P20236+P23574+P23576+P28471+P28473+P30191+P62813+P63079+P63138+Q91ZM7+Q9ES14); conditions: Compound concentration 10.0 uM
[12] = biological target: Beta-2 adrenergic receptor (Homo sapiens) (UniProt P07550); conditions: Compound concentration 10.0 uM
Beta-2 adrenergic receptor (Homo sapiens), sequence (P07550 whole entry, looked up): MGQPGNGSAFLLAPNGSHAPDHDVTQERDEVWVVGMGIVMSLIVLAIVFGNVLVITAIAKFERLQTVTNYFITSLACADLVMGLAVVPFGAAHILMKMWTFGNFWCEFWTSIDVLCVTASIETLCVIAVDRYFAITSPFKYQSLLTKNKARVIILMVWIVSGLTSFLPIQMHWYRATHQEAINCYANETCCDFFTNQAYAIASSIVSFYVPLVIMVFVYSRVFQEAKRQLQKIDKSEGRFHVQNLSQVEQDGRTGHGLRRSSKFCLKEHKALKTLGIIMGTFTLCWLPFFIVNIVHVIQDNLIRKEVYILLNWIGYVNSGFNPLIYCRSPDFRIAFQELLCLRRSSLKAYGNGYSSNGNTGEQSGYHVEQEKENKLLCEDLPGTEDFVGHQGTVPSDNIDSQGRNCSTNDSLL

[13] = biological target: Type-1 angiotensin II receptor (Homo sapiens) (UniProt P30556); conditions: Compound concentration 10.0 uM
[14] = biological target: Cannabinoid receptor 2 (Homo sapiens) (UniProt P34972); conditions: Compound concentration 10.0 uM
[15] = biological target: Glutamate NMDA receptor (Rattus norvegicus) (UniProt P35439+Q00959+Q00960+Q00961+Q62645+Q8VHN2+Q9R1M7); conditions: Compound concentration 10.0 uM
[16] = biological target: Sigma intracellular receptor 2 (Homo sapiens) (UniProt Q5BJF2); conditions: Compound concentration 10.0 uM
Sigma intracellular receptor 2 (Homo sapiens), sequence (Q5BJF2 whole entry): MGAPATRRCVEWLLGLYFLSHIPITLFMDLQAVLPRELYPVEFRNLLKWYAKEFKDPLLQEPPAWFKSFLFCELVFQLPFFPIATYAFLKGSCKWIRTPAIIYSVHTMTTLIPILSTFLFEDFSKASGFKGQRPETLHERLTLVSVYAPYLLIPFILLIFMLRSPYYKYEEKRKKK

[17] = biological target: 5-hydroxytryptamine receptor 7 (Homo sapiens) (UniProt P34969); conditions: Compound concentration 10.0 uM
[18] = biological target: Motilin receptor (Homo sapiens) (UniProt O43193); conditions: Compound concentration 10.0 uM
[19] = biological target: Histamine H2 receptor (Homo sapiens) (UniProt P25021); conditions: Compound concentration 10.0 uM; remark: listed apart in the source
[20] = biological target: Growth hormone secretagogue receptor type 1 (Homo sapiens) (UniProt Q92847); conditions: Compound concentration 10.0 uM
[21] = biological target: Adenosine receptor A3 (Homo sapiens) (UniProt P0DMS8); conditions: Compound concentration 10.0 uM
Adenosine receptor A3 (Homo sapiens), sequence (P0DMS8 whole entry): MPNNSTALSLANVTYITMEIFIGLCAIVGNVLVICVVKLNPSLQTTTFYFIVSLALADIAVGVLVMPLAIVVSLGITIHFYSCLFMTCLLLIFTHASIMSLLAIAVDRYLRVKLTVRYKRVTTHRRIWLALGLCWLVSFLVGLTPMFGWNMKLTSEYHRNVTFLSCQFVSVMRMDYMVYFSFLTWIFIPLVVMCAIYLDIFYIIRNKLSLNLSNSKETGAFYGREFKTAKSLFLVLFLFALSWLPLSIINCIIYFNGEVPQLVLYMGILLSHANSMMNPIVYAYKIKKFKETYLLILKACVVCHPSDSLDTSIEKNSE

[22] = biological target: 5-hydroxytryptamine receptor 1D (Homo sapiens) (UniProt P28221); conditions: Compound concentration 10.0 uM
[23] = biological target: Type-2 angiotensin II receptor (Homo sapiens) (UniProt P50052); conditions: Compound concentration 10.0 uM
[24] = biological target: Vasopressin V1a receptor (Homo sapiens) (UniProt P37288); conditions: Compound concentration 10.0 uM
Vasopressin V1a receptor (Homo sapiens), sequence (P37288 whole entry, looked up): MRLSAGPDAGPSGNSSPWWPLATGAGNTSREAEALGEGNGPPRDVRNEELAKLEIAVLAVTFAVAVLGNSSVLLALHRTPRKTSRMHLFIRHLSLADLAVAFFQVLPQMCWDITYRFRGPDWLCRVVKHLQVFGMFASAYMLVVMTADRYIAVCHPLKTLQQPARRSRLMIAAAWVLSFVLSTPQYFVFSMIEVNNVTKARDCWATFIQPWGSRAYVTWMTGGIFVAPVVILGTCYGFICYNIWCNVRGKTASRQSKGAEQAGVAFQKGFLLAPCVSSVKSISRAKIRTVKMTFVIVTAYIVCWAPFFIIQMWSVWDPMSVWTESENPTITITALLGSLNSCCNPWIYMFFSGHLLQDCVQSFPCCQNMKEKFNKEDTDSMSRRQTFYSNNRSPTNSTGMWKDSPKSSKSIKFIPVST

[25] = biological target: 5-hydroxytryptamine receptor 2B (Homo sapiens) (UniProt P41595); conditions: Compound concentration 10.0 uM
Rattus norvegicus = species on record: Rattus norvegicus; conditions: Compound concentration 10.0 uM
[26] = biological target: Muscarinic acetylcholine receptor M5 (Homo sapiens) (UniProt P08912); conditions: Compound concentration 10.0 uM
Muscarinic acetylcholine receptor M5 (Homo sapiens), sequence (P08912 whole entry): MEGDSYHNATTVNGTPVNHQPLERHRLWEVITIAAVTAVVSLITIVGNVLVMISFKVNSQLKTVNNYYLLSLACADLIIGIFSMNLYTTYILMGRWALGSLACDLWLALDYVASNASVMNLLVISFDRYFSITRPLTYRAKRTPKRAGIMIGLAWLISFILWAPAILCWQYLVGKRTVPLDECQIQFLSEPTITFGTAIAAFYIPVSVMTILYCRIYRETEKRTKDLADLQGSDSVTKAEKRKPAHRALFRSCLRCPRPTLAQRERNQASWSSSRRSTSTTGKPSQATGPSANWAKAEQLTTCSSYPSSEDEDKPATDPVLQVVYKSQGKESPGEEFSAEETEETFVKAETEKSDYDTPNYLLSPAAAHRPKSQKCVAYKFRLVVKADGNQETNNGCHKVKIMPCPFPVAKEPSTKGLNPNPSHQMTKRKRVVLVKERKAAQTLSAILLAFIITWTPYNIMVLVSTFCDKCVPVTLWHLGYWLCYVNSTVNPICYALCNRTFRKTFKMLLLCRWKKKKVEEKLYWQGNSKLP

[27] = biological target: T1, GABA-A receptor; anion channel (Rattus norvegicus); conditions: Compound concentration 10.0 uM; remark: listed apart in the source
[28] = biological target: D(1B) dopamine receptor (Homo sapiens) (UniProt P21918); conditions: Compound concentration 10.0 uM
[29] = biological target: D(1A) dopamine receptor (Homo sapiens) (UniProt P21728); conditions: Compound concentration 10.0 uM
[30] = biological target: Delta-type opioid receptor (Homo sapiens) (UniProt P41143); conditions: Compound concentration 10.0 uM
Delta-type opioid receptor (Homo sapiens), sequence (P41143 whole entry): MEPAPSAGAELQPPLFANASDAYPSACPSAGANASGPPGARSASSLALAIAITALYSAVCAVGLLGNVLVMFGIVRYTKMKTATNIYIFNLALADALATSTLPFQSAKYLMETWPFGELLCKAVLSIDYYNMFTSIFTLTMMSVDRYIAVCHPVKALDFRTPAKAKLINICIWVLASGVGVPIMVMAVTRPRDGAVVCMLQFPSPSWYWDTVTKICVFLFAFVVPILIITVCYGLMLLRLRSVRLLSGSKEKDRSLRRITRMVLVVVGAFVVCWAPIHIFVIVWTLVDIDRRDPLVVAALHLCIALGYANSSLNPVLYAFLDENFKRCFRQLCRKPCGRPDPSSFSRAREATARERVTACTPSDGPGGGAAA

[31] = biological target: Sodium-dependent noradrenaline transporter (Homo sapiens) (UniProt P23975); conditions: Compound concentration 10.0 uM
[32] = biological target: Alpha-2C adrenergic receptor (Homo sapiens) (UniProt P18825); conditions: Compound concentration 10.0 uM; remark: listed apart in the source
[33] = biological target: Equilibrative nucleoside transporter 1/2/3/4 (Homo sapiens) (UniProt Q99808+Q7RTT9+Q14542+Q9BZD2); conditions: Compound concentration 10.0 uM
[34] = biological target: Glutamate receptor 2 (Homo sapiens) (UniProt P42262); conditions: Rattus norvegicus; Compound concentration 10.0 uM
[35] = biological target: 5-hydroxytryptamine receptor 2C (Homo sapiens) (UniProt P28335); conditions: Compound concentration 10.0 uM
5-hydroxytryptamine receptor 2C (Homo sapiens), sequence (P28335 whole entry): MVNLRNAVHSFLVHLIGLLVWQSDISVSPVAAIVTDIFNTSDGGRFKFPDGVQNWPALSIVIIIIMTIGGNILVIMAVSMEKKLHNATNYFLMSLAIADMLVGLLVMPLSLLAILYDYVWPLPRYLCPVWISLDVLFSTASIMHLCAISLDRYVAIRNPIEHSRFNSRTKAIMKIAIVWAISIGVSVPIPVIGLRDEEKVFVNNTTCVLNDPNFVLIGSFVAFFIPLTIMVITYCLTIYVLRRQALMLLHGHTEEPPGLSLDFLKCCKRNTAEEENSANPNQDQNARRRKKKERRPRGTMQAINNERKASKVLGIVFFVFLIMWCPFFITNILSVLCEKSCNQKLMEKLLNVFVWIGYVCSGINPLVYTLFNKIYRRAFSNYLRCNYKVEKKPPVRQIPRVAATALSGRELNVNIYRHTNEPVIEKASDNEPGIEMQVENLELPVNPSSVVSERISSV

[36] = biological target: 5-hydroxytryptamine receptor 6 (Homo sapiens) (UniProt P50406); conditions: Compound concentration 10.0 uM
[37] = biological target: Delta-type opioid receptor (Homo sapiens) (UniProt P41143); conditions: Compound concentration 10.0 uM; remark: listed apart in the source
[38] = biological target: 5-hydroxytryptamine receptor 2A (Homo sapiens) (UniProt P28223); conditions: Compound concentration 10.0 uM
[39] = biological target: Beta-1 adrenergic receptor (Homo sapiens) (UniProt P08588); conditions: Compound concentration 10.0 uM
Beta-1 adrenergic receptor (Homo sapiens), sequence (P08588 whole entry, looked up): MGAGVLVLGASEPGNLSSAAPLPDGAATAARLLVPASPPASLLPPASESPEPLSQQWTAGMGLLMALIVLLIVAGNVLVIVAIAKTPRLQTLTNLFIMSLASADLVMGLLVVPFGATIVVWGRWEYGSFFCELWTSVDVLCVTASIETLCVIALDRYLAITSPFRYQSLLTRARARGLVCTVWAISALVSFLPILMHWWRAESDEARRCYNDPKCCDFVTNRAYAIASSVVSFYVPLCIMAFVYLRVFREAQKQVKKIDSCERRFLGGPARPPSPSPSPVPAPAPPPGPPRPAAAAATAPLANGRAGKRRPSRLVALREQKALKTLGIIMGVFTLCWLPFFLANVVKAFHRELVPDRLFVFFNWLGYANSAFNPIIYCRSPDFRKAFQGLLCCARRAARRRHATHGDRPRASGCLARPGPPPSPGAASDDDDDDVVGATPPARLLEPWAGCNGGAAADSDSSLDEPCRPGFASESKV

[40] = biological target: Beta-1 adrenergic receptor (Homo sapiens) (UniProt P08588); conditions: Compound concentration 10.0 uM; remark: listed apart in the source
[41] = biological target: Sodium-dependent serotonin transporter (Homo sapiens) (UniProt P31645); conditions: Compound concentration 10.0 uM
[42] = biological target: Muscarinic acetylcholine receptor M2 (Homo sapiens) (UniProt P08172); conditions: Compound concentration 10.0 uM; remark: listed apart in the source

Histamine H2 receptor (Homo sapiens), sequence (P25021 whole entry): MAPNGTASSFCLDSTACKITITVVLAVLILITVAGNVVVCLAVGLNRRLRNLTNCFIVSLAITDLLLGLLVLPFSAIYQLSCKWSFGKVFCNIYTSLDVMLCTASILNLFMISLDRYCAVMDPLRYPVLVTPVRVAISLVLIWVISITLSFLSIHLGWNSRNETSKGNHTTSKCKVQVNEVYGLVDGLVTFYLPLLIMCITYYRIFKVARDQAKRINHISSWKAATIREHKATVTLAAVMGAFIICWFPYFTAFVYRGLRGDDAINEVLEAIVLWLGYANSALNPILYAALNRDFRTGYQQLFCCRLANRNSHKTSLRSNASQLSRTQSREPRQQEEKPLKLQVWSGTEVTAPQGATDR

In the case of `Cc1ccccc1Oc1cc(-n2c(=O)cc(C(F)(F)F)[nH]c2=O)c2ccccc2c1Cl` [BAY-069], the inhibition [1] is reported as -2%, the IC50 [2] is reported as > 50 µM (not active) and the inhibition [3] is reported as 5.61%. For the same molecule, the inhibition [4] was 16%, the inhibition [5] was 8% and the inhibition [6] was 10.8%. For the same molecule, the inhibition [7] was 4.02%, the inhibition [8] was 5% and the inhibition [9] was 3%. The inhibition (Oryctolagus cuniculus) was 11%, the inhibition [10] was 4% and the inhibition [11] was 16.3%. It also gave an inhibition [12] of 11.2%, an inhibition [13] of 7% and an inhibition [14] of -5%. For the same molecule, the inhibition [15] was -2%, the inhibition [16] was -7.5% and the inhibition [17] was 13.1%. It also gave an inhibition [18] of 4%, an inhibition [19] of 5.46% and an inhibition [20] of 1%. For the same molecule, the inhibition [21] was -2%, the inhibition [22] was 0.75% and the inhibition [23] was 6%. For the same molecule, the inhibition [24] was 7%, the inhibition [25] was -0.49% and the inhibition (Rattus norvegicus) was 46%. For the same molecule, the inhibition [26] was -5.66%, the inhibition [27] was 15% and the inhibition [28] was 18.7%. For the same molecule, the inhibition [29] was -0.83%, the inhibition [30] was 14.5% and the inhibition [31] was 22%. For the same molecule, the inhibition [32] was 6%, the inhibition [33] was 28% and the inhibition [34] was 11%. The inhibition [35] was 3%, the inhibition [36] was 13% and the inhibition [37] was -3%. For the same molecule, the inhibition [38] was 1%, the inhibition [39] was -5.52% and the inhibition [40] was 3%. The inhibition [41] was 3% and the inhibition [42] was 39.2%.
